Test results reported in patent publication US10723741B1, “DNA polymerase IIIC inhibitors and use thereof” (Acurx Pharmaceuticals, LLC, priority 2018, dated 2020).
In brackets after ≈: the same amount, converted by molar mass. Read-outs that look alike come from different tables or passages of the source.

Columns and labels:
Type in all cases: cell-based
[1] = tested on: Staphylococcus aureus ATCC 29213 (MSSA); assay: Broth microdilution MIC, S. aureus ATCC 29213 (MSSA); conditions: broth microdilution, 37° C., 20 hours, read-out: MIC S. aureus ATCC 29213 (MSSA)
Summary of the method: (§1)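 Two-fold dilutions from 64 to 0.0625 μg/ml final, 1% DMSO, were inoculated at ~5.0×10^5 cfu/ml in the strain's test medium and kept 20 h at 37 °C in ambient atmosphere. Colonies were grown on MHA, with S. pneumoniae on blood agar under 5% CO2.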

[2] = tested on: Streptococcus pneumoniae ATCC 49619; assay: Broth microdilution MIC, S. pneumoniae ATCC 49619; conditions: ATCC49619, broth microdilution, 37° C., 20 hours, read-out: MIC S. pneumoniae ATCC 49619
Summary of the method: as §1

[3] = tested on: Staphylococcus aureus NRS384 (MRSA); assay: Broth microdilution MIC, S. aureus NRS384 (MRSA); parameters: MIC NRS 384 (MRSA): unit not given here; conditions: broth microdilution, 37° C., 20 hours; for MIC: Staphylococcus aureus
Summary of the method: as §1

[4] = tested on: Escherichia coli ATCC 25922; assay: Broth microdilution MIC, E. coli ATCC 25922 (MHIIB w & w/o 4 mM EDTA); conditions: broth microdilution, 37° C., 20 hours; for MIC: Escherichia coli, ATCC25922, without EDTA, read-out: MIC E. coli ATCC 25922; for MIC E. coli ATCC 25922 + 4 mM EDTA: with 4 mM EDTA
Summary of the method: as §1

[5] = tested on: Enterococcus faecium ATCC 700221 (VRE); assay: Broth microdilution MIC, E. faecium ATCC 700221 (VRE); parameters: MIC E. faecium ATCC 700221 (VRE): unit: ug/mL; conditions: broth microdilution, 37° C., 20 hours; for MIC: Enterococcus faecium
Summary of the method: as §1

[6] = tested on: Enterococcus faecalis ATCC 29212; assay: Broth microdilution MIC, E. faecalis ATCC 29212; conditions: ATCC29212, broth microdilution, 37° C., 20 hours, read-out: MIC E. faecalis ATCC 29212
Summary of the method: as §1

[7] = tested on: Bacillus subtilis ATCC 6633; assay: Broth microdilution MIC, B. subtilis ATCC 6633; conditions: ATCC6633, broth microdilution, 37° C., 20 hours, read-out: MIC B. subtilis ATCC 6633
Summary of the method: as §1

[8] = read-out: MIC E. faecium ATCC 700221 (VRE)
[9] = MHIIB, read-out: MIC against S. aureus NRS 384 (MRSA)
[10] = MHIIB, read-out: MIC against E. faecium ATCC 700221 (VRE)

Row | Compound | MIC [1] [µg/mL] | MIC [2] [µg/mL] | MIC ([3]; read-out: MIC NRS 384 (MRSA)) [µg/mL] | MIC [4] [µg/mL] | MIC E. coli ATCC 25922 + 4 mM EDTA [4] [µg/mL] | MIC [5, 8] [µg/mL] | MIC [6] [µg/mL] | MIC [7] [µg/mL] | MIC NRS 384 (MRSA) [3] | MIC E. faecium ATCC 700221 (VRE) [5] | MIC [3, 9] [µg/mL] | MIC [5, 10] [µg/mL]
1 | O=c1[nH]c(NCc2ccc(Cl)c(Cl)c2)nc2cnn(C(CO)CO)c12 [Compound 107, 5-((3,4-Dichlorobenzyl)amino)-1-(1,3-dihydroxypropan-2-yl)-1H-pyrazolo[4,3-d]pyrimidin-7(6H)-one] | > 64 | 16 (≈ 41.6 µM) | > 64 | > 64 | >64 | > 64 | > 64 | 32 (≈ 83.3 µM) |  |  |  | 
2 | Cl.O=c1[nH]c(NCc2ccc(Cl)c(Cl)c2)nc2cnn(C3CCN(S(=O)(=O)c4cccnc4)CC3)c12 [Compound 156, 5-((3,4-dichlorobenzyl)amino)-1-(1-(pyridin-3-ylsulfonyl)piperidin-4-yl)-1H-pyrazolo[4,3-d]pyrimidin-7(6H)-one hydrochloride] | 2 | 4 | 2 | > 64 | >64 | 1 | > 64 | 1 |  |  |  | 
3 | COC(=O)COCCn1ncc2nc(NCc3ccc(Cl)c(Cl)c3)[nH]c(=O)c21 [Compound 287, methyl 2-(2-(5-((3,4-dichlorobenzyl)amino)-7-oxo-6,7-dihydro-1H-pyrazolo[4,3-d]pyrimidin-1-yl)ethoxy)acetate] | 4 (≈ 9.38 µM) | 16 (≈ 37.5 µM) |  | > 64 | >64 |  | 8 (≈ 18.8 µM) | 2 (≈ 4.69 µM) | 4/4 | 4/4 |  | 
4 | Cl.O=c1[nH]c(NCc2ccc(Cl)c(Cl)c2)nc2cnn(CC3(CO)CCNCC3)c12 [Compound 195, 5-((3,4-dichlorobenzyl)amino)-1-((4-(hydroxymethyl)piperidin-4-yl)methyl)-1H-pyrazolo[4,3-d]pyrimidin-7(6H)-one hydrochloride] | > 64 | 16 | > 64 | > 64 | >64 | 64 | 64 | 8 |  |  |  | 
5 | COc1ccc(Cn2ncc3nc(NCc4ccc(Cl)c(Cl)c4)[nH]c(=O)c32)cc1OC [Compound 190, 5-((3,4-Dichlorobenzyl)amino)-1-(3,4-dimethoxybenzyl)-1H-pyrazolo[4,3-d]pyrimidin-7(6H)-one] | > 64 | > 64 | > 64 | > 64 | >64 | > 64 | > 64 | > 64 |  |  |  | 
6 | Cn1ncc2nc(NCc3nc4ccccc4s3)[nH]c(=O)c21 [Compound 18, 5-((Benzo[d]thiazol-2-ylmethyl)amino)-1-methyl-1H-pyrazolo[4,3-d]pyrimidin-7(6H)-one] | > 64 | > 64 | > 64 | > 64 | >64 | > 64 | > 64 | > 64 |  |  |  | 
7 | CC(=O)OCCCCn1ncc2nc(NCc3ccc(Cl)c(Cl)c3)[nH]c(=O)c21 [Compound 90, 4-(5-((3,4-Dichlorobenzyl)amino)-7-oxo-6,7-dihydro-1H-pyrazolo[4,3-d]pyrimidin-1-yl)butyl acetate] | 2 | 2 | 1 | > 64 | >64 | 1 | 2 | 0.5 |  |  | ≤ 1 | ≤ 1
8 | CN(C)C(CO)C(=O)N1CCC(n2ncc3nc(NCc4ccc(Cl)c(Cl)c4)[nH]c(=O)c32)CC1.Cl (stereo not shown) [Compound 279, 5-((3,4-dichlorobenzyl)amino)-1-(1-(2-(dimethylamino)-3-hydroxypropanoyl)piperidin-4-yl)-1H-pyrazolo[4,3-d]pyrimidin-7(6H)-one hydrochloride] | 32 | 4 | 32 | > 64 | >64 | 16 | 16 | 4 |  |  |  | 
9 | CS(=O)(=O)NC(=O)Cn1ncc2nc(NCc3ccc(Cl)c(Cl)c3)[nH]c(=O)c21 [Compound 165, 2-(5-((3,4-dichlorobenzyl)amino)-7-oxo-6,7-dihydro-1H-pyrazolo[4,3-d]pyrimidin-1-yl)-N-(methylsulfonyl)acetamide] | > 64 | > 64 | > 64 | > 64 | >64 | > 64 | > 64 | > 64 |  |  |  | 
10 | Cn1nc(F)c2nc(NCc3ccc(Cl)c(Cl)c3)[nH]c(=O)c21 [Compound 53, 5-((3,4-dichlorobenzyl)amino)-3-fluoro-1-methyl-1H-pyrazolo[4,3-d]pyrimidin-7(6H)-one] | 0.5 (≈ 1.46 µM) | 2 (≈ 5.85 µM) | 0.5 (≈ 1.46 µM) | > 64 | 64 | 0.5 (≈ 1.46 µM) | 2 (≈ 5.85 µM) | 0.5 (≈ 1.46 µM) |  |  | ≤ 1 | ≤ 1
11 | COCCOCCn1ncc2nc(NCc3ccc(Cl)c(Cl)c3)[nH]c(=O)c21 [Compound 136, 5-((3,4-Dichlorobenzyl)amino)-1-(2-(2-methoxyethoxy)ethyl)-1H-pyrazolo[4,3-d]pyrimidin-7(6H)-one] | 4 (≈ 9.7 µM) | 2 (≈ 4.85 µM) | 4 (≈ 9.7 µM) | > 64 | >64 | 2 (≈ 4.85 µM) | 4 (≈ 9.7 µM) | 1 (≈ 2.43 µM) |  |  |  | 

Further lines, results first:

Row | MIC [1] [µg/mL] | MIC [2] [µg/mL] | MIC ([3]; read-out: MIC NRS 384 (MRSA)) [µg/mL] | MIC [4] [µg/mL] | MIC E. coli ATCC 25922 + 4 mM EDTA [4] [µg/mL] | MIC [5, 8] [µg/mL] | MIC [6] [µg/mL] | MIC [7] [µg/mL] | MIC NRS 384 (MRSA) [3] | MIC E. faecium ATCC 700221 (VRE) [5] | MIC [3, 9] [µg/mL] | MIC [5, 10] [µg/mL] | Compound
12 | 4 (≈ 9.75 µM) | 4 (≈ 9.75 µM) |  | > 64 | >64 |  | 8 (≈ 19.5 µM) | 1 (≈ 2.44 µM) | 4/2 | 4/2 |  |  | O=c1[nH]c(NCc2ccc(Cl)c(Cl)c2)nc2cnn(CC3COCCO3)c12 (stereo not shown) [Compound 105, 1-((1,4-Dioxan-2-yl)methyl)-5-((3,4-dichlorobenzyl)amino)-1H-pyrazolo[4,3-d]pyrimidin-7(6H)-one]
13 | 8 (≈ 19.6 µM) | 2 (≈ 4.91 µM) | 16 (≈ 39.3 µM) | > 64 | 64 | 4 (≈ 9.82 µM) | 8 (≈ 19.6 µM) | 4 (≈ 9.82 µM) |  |  |  |  | O=C1CCC(Cn2ncc3nc(NCc4ccc(Cl)c(Cl)c4)[nH]c(=O)c32)N1 (stereo not shown) [Compound 93, 5-((3,4-Dichlorobenzyl)amino)-1-((5-oxopyrrolidin-2-yl)methyl)-1H-pyrazolo[4,3-d]pyrimidin-7(6H)-one]
14 | 4 (≈ 10.1 µM) | 4 (≈ 10.1 µM) | 2 (≈ 5.07 µM) | > 64 | >64 | 2 (≈ 5.07 µM) | 4 (≈ 10.1 µM) | 0.5 (≈ 1.27 µM) |  |  |  |  | O=c1[nH]c(NCc2ccc(Cl)c(Cl)c2)nc2cnn(C3CCOCC3)c12 [Compound 121, 5-((3,4-Dichlorobenzyl)amino)-1-(tetrahydro-2H-pyran-4-yl)-1H-pyrazolo[4,3-d]pyrimidin-7(6H)-one]
15 | 2 (≈ 5.02 µM) | 2 (≈ 5.02 µM) | 2 (≈ 5.02 µM) | > 64 | >64 | 2 (≈ 5.02 µM) | 4 (≈ 10 µM) | 1 (≈ 2.51 µM) |  |  |  |  | COCCOCn1ncc2nc(NCc3ccc(Cl)c(Cl)c3)[nH]c(=O)c21 [Compound 138, 5-((3,4-dichlorobenzyl)amino)-1-((2-methoxyethoxy)methyl)-1H-pyrazolo[4,3-d]pyrimidin-7(6H)-one]
16 | > 64 | 8 | 64 | > 64 | 64 | > 64 | 64 | 16 |  |  |  |  | Cl.O=c1[nH]c(NCc2ccc(Cl)c(Cl)c2)nc2cnn(CCN3CC(O)C3)c12 [Compound 70, 5-((3,4-Dichlorobenzyl)amino)-1-(2-(3-hydroxyazetidin-1-yl)ethyl)-1H-pyrazolo[4,3-d]pyrimidin-7(6H)-one hydrochloride]
17 | 8 (≈ 19 µM) | 2 (≈ 4.75 µM) | 8 (≈ 19 µM) | > 64 | >64 | 2 (≈ 4.75 µM) | 8 (≈ 19 µM) | 2 (≈ 4.75 µM) |  |  |  |  | CN1CC(Cn2ncc3nc(NCc4ccc(Cl)c(Cl)c4)[nH]c(=O)c32)CC1=O (stereo not shown) [Compound 159, 5-((3,4-dichlorobenzyl)amino)-1-((1-methyl-5-oxopyrrolidin-3-yl)methyl)-1H-pyrazolo[4,3-d]pyrimidin-7(6H)-one]
18 | 2 (≈ 5.26 µM) | 4 (≈ 10.5 µM) | 2 (≈ 5.26 µM) | > 64 | >64 | 2 (≈ 5.26 µM) | 4 (≈ 10.5 µM) | 1 (≈ 2.63 µM) |  |  |  |  | O=c1[nH]c(NCc2ccc(Cl)c(Cl)c2)nc2cnn(CC3CCO3)c12 (stereo not shown) [Compound 122, 5-((3,4-Dichlorobenzyl)amino)-1-(oxetan-2-ylmethyl)-1H-pyrazolo[4,3-d]pyrimidin-7(6H)-one]
